# Assay results reported in patent US7410975B2, “Small molecule toll-like receptor (TLR) antagonists” (Coley Pharmaceutical Group, Inc., priority 2003, dated 2008).
# Counter-ions that a name gives are not always drawn.
# Biological target: T1, human TLR7 (hTLR7) (Homo sapiens, UniProt Q9NYK1)
# T1 construct: expressed in transfected cells
# T1 sequence (Q9NYK1 27-1049): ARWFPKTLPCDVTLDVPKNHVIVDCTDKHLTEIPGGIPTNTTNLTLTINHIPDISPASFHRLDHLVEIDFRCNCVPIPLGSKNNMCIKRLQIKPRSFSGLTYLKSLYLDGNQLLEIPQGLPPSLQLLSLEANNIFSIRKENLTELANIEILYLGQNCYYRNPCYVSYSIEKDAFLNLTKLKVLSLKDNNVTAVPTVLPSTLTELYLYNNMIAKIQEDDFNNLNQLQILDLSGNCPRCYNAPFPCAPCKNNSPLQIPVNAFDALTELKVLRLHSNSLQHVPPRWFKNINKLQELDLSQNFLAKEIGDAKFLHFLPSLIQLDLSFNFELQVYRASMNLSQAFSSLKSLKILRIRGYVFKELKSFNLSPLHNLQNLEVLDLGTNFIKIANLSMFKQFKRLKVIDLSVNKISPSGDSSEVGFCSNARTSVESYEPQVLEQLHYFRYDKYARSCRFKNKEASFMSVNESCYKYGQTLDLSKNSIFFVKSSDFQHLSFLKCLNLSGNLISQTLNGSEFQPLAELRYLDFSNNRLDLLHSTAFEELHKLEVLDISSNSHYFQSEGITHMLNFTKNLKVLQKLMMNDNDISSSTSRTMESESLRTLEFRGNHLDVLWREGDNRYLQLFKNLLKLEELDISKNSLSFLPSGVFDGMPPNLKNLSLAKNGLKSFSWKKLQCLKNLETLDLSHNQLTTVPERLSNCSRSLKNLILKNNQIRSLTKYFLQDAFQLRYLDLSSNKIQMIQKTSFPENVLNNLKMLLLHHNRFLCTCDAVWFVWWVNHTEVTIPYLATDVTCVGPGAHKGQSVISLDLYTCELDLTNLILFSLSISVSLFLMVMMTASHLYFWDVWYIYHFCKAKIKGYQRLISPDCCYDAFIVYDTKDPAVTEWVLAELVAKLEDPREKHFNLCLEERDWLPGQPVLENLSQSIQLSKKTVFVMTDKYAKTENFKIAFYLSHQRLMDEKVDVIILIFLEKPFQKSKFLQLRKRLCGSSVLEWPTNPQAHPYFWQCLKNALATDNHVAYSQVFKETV
# Assay: Antagonist screen, hTLR7-NFκB-293 cells, NF-κB-luciferase reporter, with EC50 of R848
# Type: cell-based
# Settings: compound at 0.5, 5, 50 μg/ml; EC50 concentration of R848; 16 h; NF-κB-luciferase
row,SMILES,"hTLR7 (inhibitory effect, antagonist score)"
1,"CN1CCc2cc3c(c4c2C1Cc1ccccc1-4)OCO3.Cl (stereo not shown) [compound 669, Remerine hydrochloride]",11 (compounds for which there was clear down regulation only at 50 μg/ml)
2,"COc1cc2nc(N3CCN(C(=O)C4COc5ccccc5O4)CC3)nc(N)c2cc1OC.CS(=O)(=O)O (stereo not shown) [compound 858, Doxazosin mesylate]",— (compounds for which there was no clear down regulation even at 50 μg/ml)
3,"CN1CCc2cccc3c2[C@H]1Cc1ccc(O)c(O)c1-3.Cl [compound 101, Apomorphinehydrochloride (R, —)]",— (compounds for which there was no clear down regulation even at 50 μg/ml)
4,"CN(C)C(=O)C(CCN1CCC(O)(c2ccc(Cl)cc2)CC1)(c1ccccc1)c1ccccc1 [compound 144, Loperamidehydrochloride]",11 (compounds for which there was clear down regulation only at 50 μg/ml)
5,"CC(C)(C)c1ccc(C(O)CCCN2CCC(C(O)(c3ccccc3)c3ccccc3)CC2)cc1 (stereo not shown) [compound 138, Terfenadine]",11 (compounds for which there was clear down regulation only at 50 μg/ml)
6,CCN(CC)CCCNc1nc(-c2ccccc2)nc2ccccc12 [compound 2001],11 (compounds for which there was clear down regulation only at 50 μg/ml)
7,"COc1cc2c(cc1O)C[C@H]1c3c(cc(O)c(OC)c3-2)CCN1C [compound 600, Boldine]",— (compounds for which there was no clear down regulation even at 50 μg/ml)
8,CCN(CC)CCCC(C)Nc1nc(/C=C/c2ccc(Cl)cc2)nc2cc3ccccc3cc12 (stereo not shown) [compound 2000],"13 (compounds for which there was clear down regulation at 0.5 μg/ml, 5 μg/ml, and 50 μg/ml)"
9,"COc1cc2nc(N3CCN(C(=O)C4CCCO4)CC3)nc(N)c2cc1OC.Cl (stereo not shown) [compound 751, Terazosin hydrochloride]",— (compounds for which there was no clear down regulation even at 50 μg/ml)

# Same assay, conditions: hTLR7-NFκB-293 cells, with EC50 of R848; compound at 0.5, 5 and 50 μg/ml
row,SMILES,hTLR7 (inhibitory effect)
1,"CC[N+](C)(CC)CCC[n+]1c(-c2ccccc2)c2cc(N)ccc2c2ccc(N)cc21.[I-].[I-] [compound 792, Propidium iodide]",— (compounds for which there was no clear down regulation even at 50 μg/ml)
2,CCCCCCCCCCCC(=O)Nc1c2c(nc3ccccc13)N(C)CC2 [compound 1334],— (compounds for which there was no clear down regulation even at 50 μg/ml)
3,Cc1ccc(-n2c(NCCO)nc3c(c2=O)C2(CCCCC2)Cc2ccccc2-3)cc1 [compound 1137],12 (compounds for which there was clear down regulation at 5 μg/ml and 50 μg/ml)
4,"COc1cc2cc3c4cc(OC)c(OC)cc4cc[n+]3c(C)c2cc1OC [compound 431, Coralyne chloridehydrate]",— (compounds for which there was no clear down regulation even at 50 μg/ml)
5,"CN1CCCCc2c1nc1ccccc1c2N [compound 1185, 1-Methyl-2,3,4,5-tetrahydro-1H-azepino[2,3-b]quinolin-6-ylamine]",— (compounds for which there was no clear down regulation even at 50 μg/ml)
6,O=C1c2ccc(S(=O)(=O)c3ccc4c(c3)C(=O)N(c3ccccn3)C4=O)cc2C(=O)N1c1ccccn1 [compound 1163],11 (compounds for which there was clear down regulation only at 50 μg/ml)
7,Cn1c(NN)nc2c(c1=O)C1(CCCC1)Cc1ccccc1-2 [compound 1213],11 (compounds for which there was clear down regulation only at 50 μg/ml)
8,CN1CCc2c1nc1ccccc1c2NC(=O)CN1CCCCCC1 [compound 1003],11 (compounds for which there was clear down regulation only at 50 μg/ml)
9,"CN1CCc2c1nc1ccc(Br)cc1c2N [compound 1142, 6-Bromo-1-methyl-2,3-dihydro-1H-pyrrolo[2,3-b]quinolin-4-ylamine]",11 (compounds for which there was clear down regulation only at 50 μg/ml)
10,"Nc1c2c(nc3ccccc13)N(Cc1ccccc1)CC2 [compound 1217, 1-Benzyl-2,3-dihydro-1H-pyrrolo[2,3-b]quinolin-4-ylamine]","13 (compounds for which there was clear down regulation at 0.5 μg/ml, 5 μg/ml, and 50 μg/ml)"
11,O=c1[nH]c(NCCO)nc2c1C1(CCCC1)Cc1ccccc1-2 [compound 1322],11 (compounds for which there was clear down regulation only at 50 μg/ml)
12,"COc1ccc(Cc2nccc3cc(OC)c(OC)cc23)cc1OC.Cl [compound 583, Papaverinehydrochloride]",11 (compounds for which there was clear down regulation only at 50 μg/ml)
13,NNc1nc2c(c(=O)n1-c1ccccc1)C1(CCCC1)Cc1ccccc1-2 [compound 1320],— (compounds for which there was no clear down regulation even at 50 μg/ml)
14,O=c1c2c(nc(NCCO)n1Cc1ccccc1)-c1ccccc1CC21CCCC1 [compound 926],11 (compounds for which there was clear down regulation only at 50 μg/ml)
15,"CCOc1ccc(Cc2nccc3cc(OCC)c(OCC)cc23)cc1OCC.Cl [compound 830, Ethaverinehydrochloride]",11 (compounds for which there was clear down regulation only at 50 μg/ml)
16,CCCCCCN(CCCCCC)CC(=O)Nc1c2c(nc3ccccc13)N(C)CC2 [compound 1224],12 (compounds for which there was clear down regulation at 5 μg/ml and 50 μg/ml)
17,"Cc1ccc2nc3c(c(N)c2c1)CCN3C [compound 1091, 1,6-Dimethyl-2,3-dihydro-1H-pyrrolo[2,3-b]quinolin-4-ylamine]",11 (compounds for which there was clear down regulation only at 50 μg/ml)
18,O=c1c2c(nc(NCCO)n1-c1ccccc1)-c1ccccc1CC21CCCC1 [compound 891],11 (compounds for which there was clear down regulation only at 50 μg/ml)
19,O=C(CN1CCCC1)Nc1c2c(nc3ccccc13)N(c1ccccc1)CC2 [compound 1244],11 (compounds for which there was clear down regulation only at 50 μg/ml)
20,CN1CCc2c1nc1ccccc1c2NC(=O)CN1CCN(c2ccccc2)CC1 [compound 1212],11 (compounds for which there was clear down regulation only at 50 μg/ml)
21,NNc1nc2c(c(=O)n1C1CCCC1)C1(CCCC1)Cc1ccccc1-2 [compound 1248],11 (compounds for which there was clear down regulation only at 50 μg/ml)
22,"COc1ccc2cc3[n+](cc2c1OC)CCc1cc2c(cc1-3)OCO2.[Cl-] [compound 586, Berberine chloride]",— (compounds for which there was no clear down regulation even at 50 μg/ml)
23,O=C1c2ccc(Oc3ccc(S(=O)(=O)c4ccc(Oc5ccc6c(c5)C(=O)N(c5ccccn5)C6=O)cc4)cc3)cc2C(=O)N1c1ccccn1 [compound 1367],11 (compounds for which there was clear down regulation only at 50 μg/ml)
24,"CN1CCc2c1nc1ccccc1c2N [compound 990, 1-Methyl-2,3-dihydro-1H-pyrrolo[2,3-b]quinolin-4-ylamine]",— (compounds for which there was no clear down regulation even at 50 μg/ml)
25,"CN(C)CCN(Cc1ccc(Cl)cc1)c1ccccn1.Cl [compound 807, Chloro-pyraminehydrochloride]",— (compounds for which there was no clear down regulation even at 50 μg/ml)
